Experimental data reported in PubChem BioAssay (NCI).
“And” between values parts separate entries of the source, which are not always exact repeats. Identical values can stand only once.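 Where inhibition never reached the appropriate level, the endpoint shown equals the highest concentration tested. Otherwise, values were interpolated linearly from a five-concentration, 48-hour dose response in 96-well plates. At the GI50, growth is halved. TGI denotes the concentration required for complete inhibition of growth.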

How the values were obtained:
Experiment in all cases: inhibition of tumour cell growth, NCI panel, 48 h
[1] = test system: A498 renal
[2] = test system: SNB-19 CNS
[3] = test system: COLO 205 colon
[4] = test system: SK-MEL-5 melanoma
[5] = test system: RPMI-8226 leukemia
[6] = test system: NCI-H522 lung
[7] = test system: OVCAR-8 ovarian
[8] = test system: SF-539 CNS
[9] = test system: NCI-H460 lung
[10] = test system: NCI-H226 lung

## C=C1CC[C@@H]2[C@](C)(COC(C)=O)[C@H](OC(C)=O)CC[C@@]2(C)[C@@H]1CC(Nc1ccc(S(=O)(=O)Nc2nccc(C)n2)cc1)C1=CCOC1=O (stereo partly drawn)
[1]
  GI50: 14.8 µM
  TGI: 28.4 µM
[2]
  GI50: 6.3 µM
  TGI: 20.7 µM
[3]
  GI50: 2.09 µM
  TGI: 4.66 µM
[4]
  GI50: 3.79 µM
  TGI: 14 µM
[5]
  GI50: 1.95 µM
  TGI: 6.84 µM
[6]
  GI50: 1.26 µM
  TGI: 3.1 µM
[7]
  GI50: 2.61 µM
  TGI: 8.56 µM
[8]
  GI50: 2.07 µM
  TGI: 4.73 µM
[9]
  GI50: 4.88 µM
  TGI: 18.3 µM
[10]
  GI50: 2.33 µM
  TGI: 5.91 µM

## Cc1ccc(C(O)c2cnc(C)n2Cc2ccccc2)cc1 (stereo not drawn)
[1]
  TGI: > 100 µM
[2]
  TGI: > 100 µM
[3]
  TGI: > 100 µM
[4]
  TGI: > 100 µM
[5]
  TGI: > 100 µM
[6]
  TGI: > 100 µM
[7]
  TGI: > 100 µM
[8]
  TGI: > 100 µM
[9]
  TGI: > 100 µM
[10]
  TGI: > 100 µM

## O=C(CCl)N1c2ccccc2Sc2c1ccc1ccccc21
[1]
  GI50: 12.9 µM
  TGI: 25.9 µM
[2]
  GI50: 4.37 µM
  TGI: 15.1 µM
[3]
  GI50: 1.87 µM
  TGI: 4.06 µM
[4]
  GI50: 1.73 µM
  TGI: 3.15 µM
[5]
  GI50: 3.08 µM
  TGI: 13.1 µM
[6]
  GI50: 1.76 µM
  TGI: 3.46 µM
[7]
  GI50: 2.13 µM
  TGI: 5.48 µM
[8]
  GI50: 2.08 µM
  TGI: 4.81 µM
[9]
  GI50: 2.11 µM
  TGI: 4.34 µM
[10]
  GI50: 2.21 µM
  TGI: 5.26 µM

## CCOc1ccc(NCc2cc(OC)c(OC)c(OC)c2)cc1
[1]
  GI50: 1.05 µM and 4.61 µM
  TGI: > 48 µM and 59.5 µM
[2]
  GI50: 4.9 µM
  TGI: > 100 µM
[3]
  TGI: 2.46 µM and 5.04 µM
[4]
  TGI: 52.9 µM and > 60.6 µM
[5]
  TGI: 57 µM and > 74.6 µM
[6]
  TGI: 1.78 µM and 2.55 µM
[7]
  GI50: 5.75 µM and 2.31 µM
  TGI: > 80.7 µM and 62.6 µM
[8]
  TGI: 2.95 µM and 3.25 µM
[9]
  TGI: > 100 µM and 58 µM
[10]
  TGI: > 100 µM

## OCCCCCCOc1ccc(-c2cc(-c3ccccn3)nc(-c3ccccn3)c2)cc1
[1]
  TGI: 5.77 µM
[2]
  TGI: 37.8 µM
[3]
  TGI: 8.09 µM
[4]
  TGI: 3.48 µM
[5]
  TGI: 1.88 µM
[6]
  TGI: 3.32 µM
[7]
  TGI: 1.7 µM
[8]
  TGI: 1.02 µM
[9]
  TGI: 1.17 µM
[10]
  TGI: 1.06 µM

## CCOC(=O)NN1C(=O)C(=P(c2ccccc2)(c2ccccc2)c2ccccc2)C(C(=O)OCC)=C1C
[1]
  TGI: > 100 µM
[2]
  TGI: > 100 µM
[3]
  TGI: > 100 µM
[4]
  TGI: > 100 µM
[5]
  TGI: > 100 µM
[6]
  TGI: > 100 µM
[7]
  TGI: > 100 µM
[8]
  TGI: > 100 µM
[9]
  TGI: > 100 µM
[10]
  TGI: > 100 µM

## CCCCN(Cc1ccc(F)cc1)c1ccc(CO)c(Cl)c1
[1]
  GI50: 0.0543 µM
  TGI: 0.208 µM
[2]
  GI50: 14.3 µM
  TGI: 27.7 µM
[3]
  GI50: 14 µM
  TGI: 27.2 µM
[4]
  GI50: 14.3 µM
  TGI: 27.5 µM
[5]
  GI50: 10.1 µM
  TGI: 36.3 µM
[6]
  GI50: 15 µM
  TGI: 30.1 µM
[7]
  GI50: 14.2 µM
  TGI: 28.5 µM
[8]
  GI50: 17.7 µM
  TGI: 32.6 µM
[9]
  GI50: 2.46 µM
  TGI: 13.4 µM
[10]
  GI50: 0.146 µM
  TGI: 0.318 µM

## COc1ccc(NC(=O)c2cc(OC)c(OC)c(OC)c2)cc1
[1]
  TGI: > 100 µM
[2]
  TGI: > 100 µM
[3]
  TGI: > 71.9 µM
[4]
  TGI: > 80.6 µM
[5]
  TGI: > 100 µM
[6]
  TGI: > 87.4 µM
[7]
  TGI: > 100 µM
[8]
  TGI: > 100 µM
[9]
  TGI: > 100 µM
[10]
  TGI: > 100 µM

## CC(=O)[O-].CC(=O)[O-].[NH2-].[Pt+2].c1ccc2cnccc2c1
[1]
  GI50: > 100 µM
  TGI: > 100 µM
[2]
  GI50: > 100 µM
  TGI: > 100 µM
[3]
  GI50: 24.7 µM
  TGI: > 100 µM
[4]
  GI50: 38.4 µM
  TGI: > 100 µM
[5]
  GI50: 27.7 µM
  TGI: > 100 µM
[6]
  GI50: 12.4 µM
  TGI: 24.9 µM
[7]
  GI50: 3.72 µM
  TGI: 21.7 µM
[8]
  GI50: 4.83 µM
  TGI: 43.8 µM
[9]
  GI50: 26.2 µM
  TGI: > 100 µM
[10]
  GI50: 47.4 µM
  TGI: > 100 µM

## CN(CCOc1ccc(C#N)cc1)CCOc1ccc(C#N)cc1
[1]
  GI50: 14.8 µM
  TGI: > 100 µM
[2]
  GI50: > 100 µM
  TGI: > 100 µM
[3]
  GI50: > 100 µM
  TGI: > 100 µM
[4]
  GI50: 78.6 µM
  TGI: > 100 µM
[5]
  GI50: 7.39 µM
  TGI: > 100 µM
[6]
  GI50: 4.98 µM
  TGI: > 100 µM
[7]
  GI50: 29 µM
  TGI: > 100 µM
[8]
  GI50: > 100 µM
  TGI: > 100 µM
[9]
  GI50: > 100 µM
  TGI: > 100 µM
[10]
  GI50: > 100 µM
  TGI: > 100 µM

## Fc1cccc(COc2ccc(Nc3ncnc4cc(-c5ccc[nH]5)sc34)cc2Cl)c1
[1]
  GI50: 2.27 µM
  TGI: > 17.7 µM
[2]
  GI50: 2.22 µM
  TGI: > 25 µM
[3]
  GI50: 5.47 µM
  TGI: 17.5 µM
[4]
  GI50: 6.01 µM
  TGI: > 25 µM
[5]
  GI50: 0.133 µM
  TGI: > 15.9 µM
[6]
  GI50: 1.48 µM
  TGI: > 7.14 µM
[7]
  GI50: 3.38 µM
  TGI: > 25 µM
[8]
  GI50: 0.931 µM
  TGI: 4.81 µM
[9]
  GI50: 2.09 µM
  TGI: > 15.3 µM
[10]
  GI50: 1.7 µM
  TGI: > 16.8 µM

## CN(C)C(=S)N=Nc1c(O)[nH]c2ccccc12
[1]
  GI50: 6.28 µM
  TGI: 20.4 µM
[2]
  GI50: 0.546 µM
  TGI: 15 µM
[3]
  GI50: 0.356 µM
  TGI: 3.56 µM
[4]
  GI50: 0.626 µM
  TGI: 12.5 µM
[5]
  GI50: 0.418 µM
  TGI: 33.5 µM
[6]
  GI50: 0.355 µM
  TGI: 11 µM
[7]
  GI50: 0.525 µM
  TGI: 26 µM
[8]
  GI50: 0.499 µM
  TGI: 8.39 µM
[9]
  GI50: 0.374 µM
  TGI: 2.49 µM
[10]
  GI50: 0.642 µM
  TGI: 6.43 µM

## CC1C(=O)C(C)C(c2ccccc2)N(N=O)C1c1ccccc1 (stereo not drawn)
[1]
  TGI: 696 µM
[2]
  GI50: 312 µM
  TGI: > 830 µM
[3]
  TGI: > 674 µM
[4]
  TGI: > 605 µM
[5]
  TGI: > 1000 µM
[6]
  GI50: > 385 µM
  TGI: > 601 µM
[7]
  GI50: 353 µM
  TGI: > 946 µM
[8]
  GI50: > 50.3 µM
  TGI: > 79 µM and 310 µM
[9]
  TGI: > 1000 µM
[10]
  GI50: 260 µM
  TGI: 572 µM

## O=C1CC[C@@H](S(=O)(=O)c2ccccc2)[C@@H](/C=C/c2ccccc2)O1
[1]
  TGI: > 100 µM
[2]
  TGI: > 100 µM
[3]
  TGI: > 100 µM
[4]
  TGI: > 100 µM
[5]
  TGI: > 100 µM
[6]
  TGI: > 100 µM
[7]
  TGI: > 100 µM
[8]
  TGI: > 100 µM
[9]
  TGI: > 100 µM
[10]
  TGI: > 100 µM

## CN(C)CCOc1ccc2c(c1)C/C(=C/c1ncc([N+](=O)[O-])n1C)C2=O
[1]
  TGI: 5.54 µM
[2]
  TGI: 15.3 µM
[3]
  TGI: 3.33 µM
[4]
  TGI: 3.49 µM
[5]
  TGI: 4.46 µM
[6]
  TGI: 3.02 µM
[7]
  TGI: 8.01 µM
[8]
  TGI: 21.2 µM
[9]
  TGI: 4.05 µM
[10]
  TGI: 4.52 µM

## CC(C)CC1=[N+]=C(NC#N)N=C(CCC(=O)Nc2ccccc2[N+](=O)[O-])C1
[1]
  TGI: > 100 µM
[2]
  TGI: > 100 µM
[3]
  TGI: > 100 µM
[4]
  TGI: > 100 µM
[5]
  TGI: > 100 µM
[6]
  TGI: > 100 µM
[7]
  TGI: > 100 µM
[8]
  TGI: > 100 µM
[9]
  TGI: > 100 µM
[10]
  TGI: > 100 µM

## CN(C)c1ccc2cc(-c3ccccc3F)c(N)nc2c1
[1]
  GI50: 2.32 µM
  TGI: 15.2 µM
[2]
  GI50: 3.1 µM
  TGI: 19.2 µM
[3]
  GI50: 1.38 µM
  TGI: 6.35 µM
[4]
  GI50: 1.54 µM
  TGI: 6.31 µM
[5]
  GI50: 2.83 µM
  TGI: 17.7 µM
[6]
  GI50: 1.35 µM
  TGI: 5.87 µM
[7]
  GI50: 3.71 µM
  TGI: 15.8 µM
[8]
  GI50: 2.1 µM
  TGI: 7.99 µM
[9]
  GI50: 2.02 µM
  TGI: 13.2 µM
[10]
  GI50: 3.61 µM
  TGI: 20.3 µM

## Cc1cccc(C(C)C)c1NC(=O)C(=O)CC(=O)c1c(C)n([O-])c2ccccc2[n+]1=O
[1]
  TGI: > 100 µM
[2]
  TGI: > 100 µM
[3]
  TGI: 88.3 µM
[4]
  TGI: > 100 µM
[5]
  TGI: 72.1 µM
[6]
  TGI: 53.9 µM
[7]
  TGI: > 100 µM
[8]
  TGI: 83.8 µM
[9]
  TGI: 60 µM
[10]
  TGI: > 100 µM

## O=C1C2=C(c3ccccc31)C(c1ccccc1)NC(=S)N2 (stereo not drawn)
[1]
  TGI: > 100 µM
[2]
  TGI: > 100 µM
[3]
  TGI: > 100 µM
[4]
  TGI: > 100 µM
[5]
  TGI: > 100 µM
[6]
  TGI: > 100 µM
[7]
  TGI: > 100 µM
[8]
  TGI: 46.3 µM
[9]
  TGI: > 100 µM
[10]
  TGI: > 100 µM
